From PMC7031302, “Design and synthesis of new energy restriction mimetic agents: Potent anti-tumor activities of hybrid motifs of aminothiazoles and coumarins” (Scientific Reports, 2020)
Where two headings read alike, the source gives them in different places.

Key:
Assay type in all cases: cell-based, Human
HCT116 = assay: MTT cell viability, HCT116; details: for IC50: read-out: half-maximal inhibitory concentration (IC50) HCT116
Procedure: (§1) The potential cytotoxicity of 24 candidate compounds was initially evaluated at a single concentration level (5 μM). Then a full dose-response curve was plotted for each compound against different colorectal cancer cell lines (HCT116 and HT-29) by MTT assay after 72 h treatments. 4-hydroxycoumarin, OSU-CG5, and OSU-CG12 were used as positive controls. […] Compounds 9b, 9c, 9f, 9i, 11b, and 11c were selected for further studies to determine the full dose-response survival curves using different concentrations (0.1–20 µM) against CRC cell lines and normal fibroblast cell line (F180) at different time points (Fig. 2A–2F and supplementary material Page S63 and S64).
(§2) Human colorectal carcinoma cell lines (HCT116) and (HT-29) were obtained from the European Collection of Cell Cultures (ECACC, UK). The cell lines were cultured in Roswell Park Memorial Institute medium (RPMI-1640, Sigma-Aldrich-St. Louis, MO, USA) supplemented with 10% fetal bovine serum (Sigma-Aldrich-St. Louis, MO, USA) and 1% penicillin/streptomycin (Sigma-Aldrich- Louis, MO, USA). F180 cell line (Human Normal Fibroblast), was kindly given by professor Ekkehard Dikomey (University Cancer Center, Hamburg University, Hamburg, Germany) and were cultured in Dulbecco’s Modified Eagle’s medium (DMEM, Sigma-Aldrich-St. Louis, MO, USA) supplemented with 10% fetal bovine serum (Sigma-Aldrich-St. Louis, MO, USA) and 1% penicillin/streptomycin (Sigma-Aldrich- Louis, MO, USA). All cell incubations were done at 37 °C in a humidified atmosphere of 5% CO2.
(§3) Cell viability was assessed using, 3-(4,5-dimethylthiazol-2-yl)-2,5-diphenyltetrazolium bromide (MTT) assay as previously described. In summary, cancer cell lines or F180 were seeded in complete medium at the density of 3 × 10^3/well and 5 × 10^3/well respectively in 96 well flat-bottom plates. After 24 h, cells were incubated with the candidate compounds at the indicated concentration for (24, 48 or 72 h). DMSO was used as vehicle control and 4-Hydroxycoumarin was purchased from (Sigma-Aldrich, St. Louis, MO, USA) and Cisplatin from Hospira UK Ltd. At the end of treatment, the media were aspirated from each well and incubated with 200 µL of MTT tetrazolium dye (Sigma-Aldrich, St. Louis, MO, USA) at a final concentration of 0.5 mg/ml for 2 h at 37 °C. The reduced MTT crystals were solubilized in 200 µl/well of DMSO and the absorbance was measured at 570 nm using a microplate reader (Thermo-Scientific, Vantaa, Finland).

HT-29 = assay: MTT cell viability, HT-29; details: for IC50: read-out: half-maximal inhibitory concentration (IC50) HT-29
Procedure: as §1, §2, §3

[1] = tested on: colorectal cancer cell lines, HCT116 and HT-29; assay: MTT cell viability, colorectal cancer cell lines (summary statements); details: for anticancer activities in initial screening, in words: HT-29 and HCT116 cancer cell lines; for IC50: both cell lines, summary statement
Procedure: as §1, §2, §3

[2] = Homo sapiens, HCT-116, 72 h, 72 h, MTT assay, mean ± SD (n = 6)
[3] = Homo sapiens, HT-29, 72 h, 72 h, MTT assay, mean ± SD (n = 6)
[4] = 72 h, MTT assay, mean ± SD (n = 6)

| Compound | IC50 (HCT116; [2]) [µM] | IC50 (HT-29; [3]) [µM] | also measured |
| --- | --- | --- | --- |
| O=c1cc(O)c2ccccc2o1 [4-Hydroxycoumarin, reference compound] |  |  | IC50 (HCT116; Homo sapiens, HCT-116, 72 h): > 200 µM; IC50 (HT-29; Homo sapiens, HT-29, 72 h): > 200 µM |
| CCc1cc(=O)oc2cc(Nc3nc(-c4ccccc4)cs3)ccc12 [Compound 10a, 4-Ethyl-7-(4-phenylthiazol-2-ylamino)-2H-chromen-2-one] | > 30 | > 30 |  |
| Cc1cc(=O)oc2cc(Nc3nc(-c4ccccc4)cs3)ccc12 [Compound 9a, 4-Methyl-7-(4-phenylthiazol-2-ylamino)-2H-chromen-2-one] |  | 1.54 ± 0.02 | anticancer activities in initial screening, in words [1]: significant anticancer activities |
| CCCc1cc(=O)oc2cc(Nc3nc(-c4ccc(Cl)cc4)cs3)ccc12 [Compound 11c, 7-(4-(4-Chlorophenyl)thiazol-2-ylamino)-4-propyl-2H-chromen-2-one] | 0.34 ± 0.0009 | 0.33 ± 0.032 | anticancer activities in initial screening, in words [1]: significant anticancer activities; IC50 [1]: < 0.6 µM |
| CCc1cc(=O)oc2cc(Nc3nc(-c4ccccc4[N+](=O)[O-])cs3)ccc12 [Compound 10h, 4-Ethyl-7-(4-(2-nitrophenyl)thiazol-2-ylamino)-2H-chromen-2-one] | 4.73 ± 1.93 | 1.68 ± 0.47 |  |
| CCCc1cc(=O)oc2cc(Nc3nc(-c4cccc(F)c4)cs3)ccc12 [Compound 11g, 7-(4-(3-Fluorophenyl)thiazol-2-ylamino)-4-propyl-2H-chromen-2-one] | 4.08 ± 1.36 | 1.8 ± 0.76 |  |
| CCc1cc(=O)oc2cc(Nc3nc(-c4ccc(Br)cc4)cs3)ccc12 [Compound 10b, 7-(4-(4-Bromophenyl)thiazol-2-ylamino)-4-ethyl-2H-chromen-2-one] | 3.03 ± 2.25 | 2.97 ± 0.2 |  |
| COc1cccc(-c2csc(Nc3ccc4c(C)cc(=O)oc4c3)n2)c1 [Compound 9e, 7-(4-(3-Methoxyphenyl)thiazol-2-ylamino)-4-methyl-2H-chromen-2-one] | 3.05 ± 0.14 | 3 ± 0.159 |  |
| CCc1cc(=O)oc2cc(Nc3nc(-c4cccc(OC)c4)cs3)ccc12 [Compound 10e, 4-Ethyl-7-(4-(3-methoxyphenyl)thiazol-2-ylamino)-2H-chromen-2-one] | > 30 | 13.1 ± 1.39 |  |
| Cc1cc(=O)oc2cc(Nc3nc(-c4ccc(Cl)cc4)cs3)ccc12 [Compound 9c, 7-(4-(4-Chlorophenyl)thiazol-2-ylamino)-4-methyl-2H-chromen-2-one] | 0.31 ± 0.014 | 0.37 ± 0.077 | anticancer activities in initial screening, in words [1]: significant anticancer activities; IC50 [1]: < 0.6 µM |
| N.N.[Cl][Pt][Cl] [cisplatin, Cisplatin, reference compound] |  |  | IC50 of cisplatin as a single compound, HCT116 (HCT116; single compound, 72 h MTT): 1.93 µg/mL; IC50 of cisplatin as a single compound, HT-29 (HT-29; single compound, 72 h MTT): 1.81 µg/mL |
| CCOc1ccc(-c2csc(Nc3ccc4c(C)cc(=O)oc4c3)n2)cc1 [Compound 9d, 7-(4-(4-Ethoxyphenyl)thiazol-2-ylamino)-4-methyl-2H-chromen-2-one] | 3.21 ± 0.88 | 3.03 ± 0.0205 |  |
| Cc1cc(=O)oc2cc(Nc3nc(-c4ccccc4[N+](=O)[O-])cs3)ccc12 [Compound 9h, 4-Methyl-7-(4-(2-nitrophenyl)thiazol-2-ylamino)-2H-chromen-2-one] | > 30 | > 30 |  |
| CCc1cc(=O)oc2cc(Nc3nc(-c4cccc([N+](=O)[O-])c4)cs3)ccc12 [Compound 10f, 4-Ethyl-7-(4-(3-nitrophenyl)thiazol-2-ylamino)-2H-chromen-2-one] | 10.3 ± 3.15 | 4.41 ± 1.37 |  |
| CCc1cc(=O)oc2cc(Nc3nc(-c4ccccc4OC)cs3)ccc12 [Compound 10i, 4-Ethyl-7-(4-(2-methoxyphenyl)thiazol-2-ylamino)-2H-chromen-2-one] | 13.5 ± 0.2 | 3.96 ± 1.65 |  |
| CCCc1cc(=O)oc2cc(Nc3nc(-c4ccccc4[N+](=O)[O-])cs3)ccc12 [Compound 11h, 7-(4-(2-Nitrophenyl)thiazol-2-ylamino)-4-propyl-2H-chromen-2-one] | 6.3 ± 0.605 | 3.96 ± 0.014 |  |
| CCC(CC)CN1C(=O)S/C(=C\c2ccc(O)c(C(F)(F)F)c2)C1=O [OSU-CG5, reference compound] |  |  | IC50 (HCT116; [4]): 2.85 ± 0.111 µM; IC50 (HT-29; [4]): 10.1 ± 0.373 µM |
| CCc1cc(=O)oc2cc(Nc3nc(-c4cccc(F)c4)cs3)ccc12 [Compound 10g, 4-Ethyl-7-(4-(3-fluorophenyl)thiazol-2-ylamino)-2H-chromen-2-one] | 4.08 ± 2.68 | 2.34 ± 0.615 |  |
| Cc1cc(=O)oc2cc(Nc3nc(-c4cccc(F)c4)cs3)ccc12 [Compound 9g, 7-(4-(3-Fluorophenyl)thiazol-2-ylamino)-4-methyl-2H-chromen-2-one] | 3.5 ± 0.93 | 2.91 ± 1.25 |  |
| CCCc1cc(=O)oc2cc(Nc3nc(-c4ccc(Br)cc4)cs3)ccc12 [Compound 11b, 7-(4-(4-Bromophenyl)thiazol-2-ylamino)-4-propyl-2H-chromen-2-one] | 0.26 ± 0.016 | 0.25 ± 0.004 | anticancer activities in initial screening, in words [1]: significant anticancer activities; IC50 [1]: < 0.6 µM |
| CCCc1cc(=O)oc2cc(Nc3nc(-c4cccc([N+](=O)[O-])c4)cs3)ccc12 [Compound 11f, 7-(4-(3-Nitrophenyl)thiazol-2-ylamino)-4-propyl-2H-chromen-2-one] | > 30 | 3.66 ± 0.038 |  |
| CCCc1cc(=O)oc2cc(Nc3nc(-c4cccc(OC)c4)cs3)ccc12 [Compound 11e, 7-(4-(3-Methoxyphenyl)thiazol-2-ylamino)-4-propyl-2H-chromen-2-one] | 28.6 ± 6.56 | 8.89 ± 0.813 |  |
| COc1ccccc1-c1csc(Nc2ccc3c(C)cc(=O)oc3c2)n1 [Compound 9i, 7-(4-(2-Methoxyphenyl)thiazol-2-ylamino)-4-methyl-2H-chromen-2-one] | 0.32 ± 0.041 | 0.32 ± 0.017 | anticancer activities in initial screening, in words [1]: significant anticancer activities; IC50 [1]: < 0.6 µM |
| CCc1cc(=O)oc2cc(Nc3nc(-c4ccc(Cl)cc4)cs3)ccc12 [Compound 10c, 7-(4-(4-Chlorophenyl)thiazol-2-ylamino)-4-ethyl-2H-chromen-2-one] | 3.54 ± 0.53 | 1.3 ± 0.127 |  |
| CCCc1cc(=O)oc2cc(Nc3nc(-c4ccccc4)cs3)ccc12 [Compound 11a, 7-(4-Phenylthiazol-2-ylamino)-4-propyl-2H-chromen-2-one] | 6.76 ± 0.28 | 2.13 ± 0.3 |  |
